System: E. coli O157:H7 strain VS94
Type: cell-based, Escherichia coli O157:H7

CC(C)NCC(O)COc1cccc2ccccc12 (stereo not drawn) [β-blocker, propanolol]
% Adherence: 22%
